From PMC4099110, “Synthesis and Evaluation of Novel Pyrroles and Pyrrolopyrimidines as Anti-Hyperglycemic Agents” (BioMed Research International, 2014)

System: male Wistar albino rats
Test: Streptozotocin (STZ) model of diabetes, blood glucose AUC
Assay type: in vivo, rat
Settings: decrease in blood glucose relative to Amaryl = 100%; model not stated
Method: The complete course of the experiment was conducted using male Wistar albino rats (200-250 g), reared and maintained in the animal house of the institution and provided free access to pelleted food and water ad libitum. The rats were maintained in a controlled environment (12 h light and dark cycle) for about a week for acclimatization. The protocol of the study was approved by the animal ethics committee of the Faculty of Pharmacy, […] University (10-01-2012). The study was conducted in accordance with the EC, directive 86/609/EEC for animal experiments. […] Equivalent doses of all derivatives were calculated according to their molecular weight [M·wt]. Diabetes was induced in overnight fasted rats with a single intraperitoneal injection of streptozotocin (STZ) (Sigma-Aldrich, Co., St. Louis, USA. Catalog number: 1001062761) in a dose of 65 mg/kg. STZ was freshly dissolved in ice cold citrate buffer (0.01 M, pH 4.5) prior to injection. […] Group 2, diabetic + Glimepiride ([…]) (4 mg/kg), served as a reference antidiabetic drug. Groups (3-14) were given the various pyrrole derivatives ([…], b, f, and VIIIf, a, resp.). The treated groups administered the […] and different derivatives orally. For each group, blood glucose was estimated at zero, one, two, four, and six hours after oral administration of derivatives using glucometer (Gluco Dr Super Sensor, AllMedicus Co., Ltd., Anyang, Gyeonggi, Korea). Data were represented as mean area under curve (AUC) ± SD. Significant differences between groups was tested using GraphPad InStat (Graph software Inc., V 3.05, Ralph […], Purdue University). Appropriate graphs were plotted using Microsoft Excel 2007.

Row | Structure (SMILES) | Potency of antihyperglycemic derivatives compared to Amaryl [%]
1 | Cc1nc(NN)c2c(-c3ccccc3)c(-c3ccccc3)n(-c3c(C)n(C)n(-c4ccccc4)c3=O)c2n1 [Vg, 4-(4-Hydrazinyl-2-methyl-5,6-diphenyl-7H-pyrrolo[2,3-d]pyrimidin-7-yl)-1,5-dimethyl-2-phenyl-1H-pyrazol-3(2H)-one] | 36.19

System: not given
Test: not given
Settings: not given

Row | Structure (SMILES) | melting point [°C]
2 | Nc1ncnc2c1c(-c1ccccc1)c(-c1ccccc1)n2-c1ccc(Cl)c(Cl)c1 [IIId, 7-(3,4-Dichlorophenyl)-5,6-diphenyl-7H-pyrrolo[2,3-d]pyrimidin-4-amine] | 115 to 118
3 | Cc1c(-n2cc(-c3ccccc3)c3c(N)ncnc32)c(=O)n(-c2ccccc2)n1C [IIIe, 4-(4-Amino-5-phenyl-7H-pyrrolo[2,3-d]pyrimidin-7-yl)-1,5-dimethyl-2-phenyl-1H-pyrazol-3(2H)-one] | 152 to 155
4 | Nc1nc(=S)[nH]c2c1c(-c1ccccc1)c(-c1ccccc1)n2-c1ccc(Cl)c(Cl)c1 [IIIi, 4-Amino-7-(3,4-dichlorophenyl)-5,6-diphenyl-1H-pyrrolo[2,3-d] pyrimidine-2(7H)-thione] | 90 to 95
5 | Cc1c(-n2cc(-c3ccccc3)c3c(N)nc(=S)[nH]c32)c(=O)n(-c2ccccc2)n1C [IIIj, 4-(4-Amino-5-phenyl-2-thioxo-1H-pyrrolo[2,3-d]pyrimidin-7(2H)-yl)-1,5-dimethyl-2-phenyl-1H-pyrazol-3(2H)-one] | 172 to 174
6 | O=c1[nH]cnc2c1c(-c1ccccc1)c(-c1ccccc1)n2-c1ccc(Cl)c(Cl)c1 [IId, 7-(3,4-Dichlorophenyl)-5,6-diphenyl-3H-pyrrolo[2,3-d]pyrimidin-4(7H)-one] | 172 to 176
7 | Cc1c(-n2cc(-c3ccccc3)c3c(=O)[nH]cnc32)c(=O)n(-c2ccccc2)n1C [IIe, 7-(1,5-Dimethyl-3-oxo-2-phenyl-2,3-dihydro-1H-pyrazol-4-yl)-5-phenyl-3H-pyrrolo[2,3-d]pyrimidin-4(7H)-one] | 205 to 208
8 | Cc1nc2c(c(-c3ccccc3)c(-c3ccccc3)n2-c2ccc(Cl)c(Cl)c2)c(=O)[nH]1 [IIi, 7-(3,4-Dichlorophenyl)-2-methyl-5,6-diphenyl-3H-pyrrolo[2,3-d]pyrimidin-4(7H)-one] | 200 to 202
9 | Cc1nc2c(c(-c3ccccc3)cn2-c2c(C)n(C)n(-c3ccccc3)c2=O)c(=O)[nH]1 [IIj, 7-(1,5-Dimethyl-3-oxo-2-phenyl-2,3-dihydro-1H-pyrazol-4-yl)-2-methyl-5-phenyl-3H-pyrrolo[2,3-d]pyrimidin-4(7H)-one] | 225 to 227
10 | Clc1ccc(-n2c(-c3ccccc3)c(-c3ccccc3)c3c(Cl)ncnc32)cc1Cl [IVd, 4-Chloro-7-(3,4-dichlorophenyl)-5,6-diphenyl-7H-pyrrolo[2,3-d]pyrimidine] | 124 to 128
11 | Cc1c(-n2cc(-c3ccccc3)c3c(Cl)ncnc32)c(=O)n(-c2ccccc2)n1C [IVe, 4-(4-Chloro-5-phenyl-7H-pyrrolo[2,3-d]pyrimidin-7-yl)-1,5-dimethyl-2-phenyl-1H-pyrazol-3(2H)-one] | 125 to 130
12 | Cc1nc(Cl)c2c(-c3ccccc3)c(-c3ccccc3)n(Cc3ccccc3)c2n1 [IVf, 7-Benzyl-4-chloro-2-methyl-5,6-diphenyl-7H-pyrrolo[2,3-d]pyrimidine] | 120 to 124
13 | Cc1nc(Cl)c2c(-c3ccccc3)c(-c3ccccc3)n(-c3ccc(Cl)c(Cl)c3)c2n1 [IVh, 4-Chloro-7-(3,4-dichlorophenyl)-2-methyl-5,6-diphenyl-7H-pyrrolo[2,3-d]pyrimidine] | 108 to 110
14 | Cc1nc(Cl)c2c(-c3ccccc3)cn(-c3c(C)n(C)n(-c4ccccc4)c3=O)c2n1 [IVi, 4-(4-Chloro-2-methyl-5-phenyl-7H-pyrrolo[2,3-d]pyrimidin-7-yl)-1,5-dimethyl-2-phenyl-1H-pyrazol-3(2H)-one] | 95 to 100
15 | N#Cc1c(-c2ccccc2)c(-c2ccccc2)n(-c2ccc(Cl)c(Cl)c2)c1N [Id, 2-Amino-1-(3,4-dichlorophenyl)-4,5-diphenyl-1H-pyrrole-3-carbonitrile] | 118 to 122

More lines, now with the values ahead:

Row | melting point [°C] | Structure (SMILES)
16 | 135 to 138 | CC(=O)Nc1c(C#N)c(-c2ccccc2)c(-c2ccccc2)n1-c1ccc(Cl)c(Cl)c1 [In, N-(3-Cyano-1-(3,4-dichlorophenyl)-4,5-diphenyl-1H -pyrrol-2-yl) acetamide]
17 | 135 to 138 | CC(=O)Nc1c(C#N)c(-c2ccccc2)cn1-c1c(C)n(C)n(-c2ccccc2)c1=O [Io, N-(3-Cyano-1-(1,5-dimethyl-3-oxo-2-phenyl-2,3-dihydro-1H -pyrazol-4-yl)-4-phenyl-1H -pyrrol-2-yl)acetamide]
18 | 120 to 124 | N#Cc1c(-c2ccccc2)c(-c2ccccc2)n(-c2ccc(Cl)c(Cl)c2)c1NN=C1C(N)=NN=C1N [VIIId, 2-(2-(3,5-Diamino-4H-pyrazol-4-ylidene)hydrazinyl)-1-(3,4-dichlorophenyl)-4,5-diphenyl-1H-pyrrole-3-carbonitrile]
19 | 135 to 138 | Cc1c(-n2cc(-c3ccccc3)c(C#N)c2NN=C2C(N)=NN=C2N)c(=O)n(-c2ccccc2)n1C [VIIIe, 2-(2-(3,5-Diamino-4H-pyrazol-4-ylidene)hydrazinyl)-1-(1,5-dimethyl-3-oxo-2-phenyl-2,3-dihydro-1H-pyrazol-4-yl)-4-phenyl-1H-pyrrole-3-carbonitrile]
20 | 97 to 100 | N#Cc1c(-c2ccccc2)c(-c2ccccc2)n(Cc2ccccc2)c1NN=C1C(N)=NN=C1O [VIIIf, 2-(2-(3-Amino-5-hydroxy-4H-pyrazol-4-ylidene)hydrazinyl)-1-benzyl-4,5-diphenyl-1H-pyrrole-3-carbonitrile]
21 | 125 to 130 | CCOC(=O)C(C#N)=NNc1c(C#N)c(-c2ccccc2)c(-c2ccccc2)n1Cc1ccccc1 [VIIf, Ethyl 2-(2-(1-Benzyl-3-cyano-4,5-diphenyl-1H-pyrrol-2-yl)hydrazono)-2-cyano-acetate]
22 | 142 to 166 | S=c1[nH]cnc2c1c(-c1ccccc1)c(-c1ccccc1)n2-c1ccc(Cl)c(Cl)c1 [VId, 7-(3,4-Dichlorophenyl)-5,6-diphenyl-3H-pyrrolo[2,3-d]pyrimidine-4(7H)-thione]
23 | 142 to 166 | Cc1c(-n2cc(-c3ccccc3)c3c(=S)[nH]cnc32)c(=O)n(-c2ccccc2)n1C [VIe, 1,5-Dimethyl-2-phenyl-4-(5-phenyl-4-thioxo-3H-pyrrolo[2,3-d]pyrimidin-7(4H)-yl)-1H-pyrazol-3(2H)-one]
24 | 165 to 167 | Cc1nc2c(c(-c3ccccc3)c(-c3ccccc3)n2Cc2ccccc2)c(=S)[nH]1 [VIf, 7-Benzyl-2-methyl-5,6-diphenyl-3H-pyrrolo[2,3-d]pyrimidine-4(7H)-thione]
25 | 122 to 126 | NNc1ncnc2c1c(-c1ccccc1)c(-c1ccccc1)n2-c1ccc(Cl)c(Cl)c1 [Vd, 7-(3,4-Dichlorophenyl)-4-hydrazinyl-5,6-diphenyl-7H-pyrrolo[2,3-d]pyrimidine]
26 | 142 to 146 | Cc1c(-n2cc(-c3ccccc3)c3c(NN)ncnc32)c(=O)n(-c2ccccc2)n1C [Ve, 4-(4-Hydrazinyl-5-phenyl-7H-pyrrolo[2,3-d]pyrimidin-7-yl)-1,5-dimethyl-2-phenyl-1H-pyrazol-3(2H)-one]
27 | 147 to 152 | Cc1nc(NN)c2c(-c3ccccc3)c(-c3ccccc3)n(Cc3ccccc3)c2n1 [Vf, 7-Benzyl-4-hydrazinyl-2-methyl-5,6-diphenyl-7H-pyrrolo[2,3-d] pyrimidine]
28 | 185 to 188 | Cc1nc(NN)c2c(-c3ccccc3)c(-c3ccccc3)n(-c3c(C)n(C)n(-c4ccccc4)c3=O)c2n1 [Vg, 4-(4-Hydrazinyl-2-methyl-5,6-diphenyl-7H-pyrrolo[2,3-d]pyrimidin-7-yl)-1,5-dimethyl-2-phenyl-1H-pyrazol-3(2H)-one]
29 | 142 to 146 | Cc1nc(NN)c2c(-c3ccccc3)c(-c3ccccc3)n(-c3ccc(Cl)c(Cl)c3)c2n1 [Vh, 7-(3,4-Dichlorophenyl)-4-hydrazinyl-2-methyl-5,6-diphenyl-7H-pyrrolo[2,3-d]pyrimidine]
30 | 148 to 150 | Cc1nc(NN)c2c(-c3ccccc3)cn(-c3c(C)n(C)n(-c4ccccc4)c3=O)c2n1 [Vi, 4-(4-Hydrazinyl-2-methyl-5-phenyl-7H-pyrrolo[2,3-d]pyrimidin-7-yl)-1,5-dimethyl-2-phenyl-1H-pyrazol-3(2H)-one]
